Experimental data as given in ChEMBL document CHEMBL3758169, “4-Aminoindazolyl-dihydrofuro[3,4-d]pyrimidines as non-covalent inhibitors of mutant epidermal growth factor receptor tyrosine kinase” (Bioorg Med Chem Lett, 2016).
One block for each compound: values may come before it.

Columns and labels:
[1] = target: Leucine-rich repeat serine/threonine-protein kinase 2 (Homo sapiens) (UniProt Q5S007); test: Inhibition of LRRK2 (unknown origin) at 100 nM
[2] = target: T1, Epidermal growth factor receptor (Homo sapiens, UniProt P00533); test: Inhibition of EGFR T790M/deletion (746 to 750 residues) mutant (unknown origin); format: protein assay
Target sequence in this assay (P00533 25-1210 limits assumed, stated change not applied): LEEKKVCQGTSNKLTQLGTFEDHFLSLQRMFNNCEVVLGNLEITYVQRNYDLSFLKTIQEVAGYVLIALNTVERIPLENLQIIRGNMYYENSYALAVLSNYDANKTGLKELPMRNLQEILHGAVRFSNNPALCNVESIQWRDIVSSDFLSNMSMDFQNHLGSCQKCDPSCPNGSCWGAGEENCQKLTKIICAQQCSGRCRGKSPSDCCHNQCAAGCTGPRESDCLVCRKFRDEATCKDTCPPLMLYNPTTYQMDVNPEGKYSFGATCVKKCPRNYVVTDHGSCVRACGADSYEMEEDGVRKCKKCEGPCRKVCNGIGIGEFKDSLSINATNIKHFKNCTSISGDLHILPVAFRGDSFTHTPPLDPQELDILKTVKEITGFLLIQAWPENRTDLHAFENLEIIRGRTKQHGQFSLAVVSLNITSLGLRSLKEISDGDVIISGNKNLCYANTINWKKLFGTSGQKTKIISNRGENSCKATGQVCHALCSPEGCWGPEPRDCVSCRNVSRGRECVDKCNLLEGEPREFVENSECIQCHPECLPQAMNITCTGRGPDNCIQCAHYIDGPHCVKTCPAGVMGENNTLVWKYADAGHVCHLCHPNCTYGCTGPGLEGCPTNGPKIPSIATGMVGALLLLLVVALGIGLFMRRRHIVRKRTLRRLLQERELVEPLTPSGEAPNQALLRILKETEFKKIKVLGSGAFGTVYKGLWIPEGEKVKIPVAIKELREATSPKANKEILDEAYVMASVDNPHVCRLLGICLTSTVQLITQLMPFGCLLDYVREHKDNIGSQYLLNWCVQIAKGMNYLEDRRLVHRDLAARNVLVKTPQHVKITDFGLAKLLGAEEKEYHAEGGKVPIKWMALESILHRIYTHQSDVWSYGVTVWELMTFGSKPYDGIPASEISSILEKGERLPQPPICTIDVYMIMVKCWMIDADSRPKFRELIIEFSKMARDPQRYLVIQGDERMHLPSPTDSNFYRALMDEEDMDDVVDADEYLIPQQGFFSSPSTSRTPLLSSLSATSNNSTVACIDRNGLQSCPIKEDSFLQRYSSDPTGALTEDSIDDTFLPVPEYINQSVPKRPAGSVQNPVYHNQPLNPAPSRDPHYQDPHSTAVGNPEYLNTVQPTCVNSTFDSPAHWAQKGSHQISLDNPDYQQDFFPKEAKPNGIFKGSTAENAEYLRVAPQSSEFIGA

[3] = target: Mitogen-activated protein kinase kinase kinase 8 (Homo sapiens) (UniProt P41279); test: Inhibition of COT (unknown origin) at 100 nM
[4] = target: Inhibitor of nuclear factor kappa-B kinase subunit beta (Homo sapiens) (UniProt O14920); test: Inhibition of IKKbeta (unknown origin) at 100 nM
[5] = target: Vascular endothelial growth factor receptor 2 (Homo sapiens) (UniProt P35968); test: Inhibition of KDR (unknown origin) at 100 nM
Chain of Vascular endothelial growth factor receptor 2 (Homo sapiens) (P35968 whole entry): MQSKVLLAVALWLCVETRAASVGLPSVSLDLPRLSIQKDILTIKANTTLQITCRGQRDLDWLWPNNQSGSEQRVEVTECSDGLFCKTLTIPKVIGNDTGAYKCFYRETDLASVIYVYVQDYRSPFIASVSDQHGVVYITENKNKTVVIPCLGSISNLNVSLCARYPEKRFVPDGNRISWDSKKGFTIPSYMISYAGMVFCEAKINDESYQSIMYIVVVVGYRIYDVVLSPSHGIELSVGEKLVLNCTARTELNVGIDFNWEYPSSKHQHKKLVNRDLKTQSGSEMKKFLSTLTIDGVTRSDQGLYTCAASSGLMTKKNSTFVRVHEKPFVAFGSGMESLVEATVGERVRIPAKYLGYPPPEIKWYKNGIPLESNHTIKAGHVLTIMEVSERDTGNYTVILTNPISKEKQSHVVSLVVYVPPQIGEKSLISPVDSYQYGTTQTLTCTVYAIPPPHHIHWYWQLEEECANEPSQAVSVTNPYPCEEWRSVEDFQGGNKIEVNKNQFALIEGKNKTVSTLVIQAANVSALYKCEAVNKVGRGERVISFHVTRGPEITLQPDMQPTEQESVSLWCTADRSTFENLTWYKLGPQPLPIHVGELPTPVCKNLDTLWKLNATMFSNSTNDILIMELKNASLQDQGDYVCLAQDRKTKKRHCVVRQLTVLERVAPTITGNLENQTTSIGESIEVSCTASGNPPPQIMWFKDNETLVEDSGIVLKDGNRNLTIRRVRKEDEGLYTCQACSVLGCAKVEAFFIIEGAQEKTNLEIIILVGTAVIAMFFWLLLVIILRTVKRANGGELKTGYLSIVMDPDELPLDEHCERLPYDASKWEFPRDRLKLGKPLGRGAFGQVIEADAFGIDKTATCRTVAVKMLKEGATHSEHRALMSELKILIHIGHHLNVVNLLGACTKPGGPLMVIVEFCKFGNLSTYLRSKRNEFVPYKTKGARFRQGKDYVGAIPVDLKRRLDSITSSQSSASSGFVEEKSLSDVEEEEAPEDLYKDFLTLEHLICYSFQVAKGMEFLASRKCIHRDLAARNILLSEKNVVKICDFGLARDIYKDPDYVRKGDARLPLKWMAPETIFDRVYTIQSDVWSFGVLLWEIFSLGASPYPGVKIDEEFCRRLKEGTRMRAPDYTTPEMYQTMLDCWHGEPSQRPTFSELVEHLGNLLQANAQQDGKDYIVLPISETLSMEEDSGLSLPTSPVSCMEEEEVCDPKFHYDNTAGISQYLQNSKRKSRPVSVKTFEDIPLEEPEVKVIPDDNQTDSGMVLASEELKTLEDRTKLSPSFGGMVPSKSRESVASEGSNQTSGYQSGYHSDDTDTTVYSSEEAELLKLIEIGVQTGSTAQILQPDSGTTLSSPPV

Homo sapiens [6] = species on record: Homo sapiens; test: Inhibition of PKA (unknown origin) at 100 nM
[7] = target: Proto-oncogene tyrosine-protein kinase Src (Homo sapiens) (UniProt P12931); test: Inhibition of SRC (unknown origin) at 100 nM
Homo sapiens [8] = species on record: Homo sapiens; test: Inhibition of PKCbeta1 (unknown origin) at 100 nM
[9] = target: Tyrosine-protein kinase JAK2 (Homo sapiens) (UniProt O60674); test: Inhibition of JAK2 JH1JH2 domain (unknown origin) at 100 nM
TAK1/TAB1 (Homo sapiens) = TAK1/TAB1 (Homo sapiens) (UniProt Q15750+O43318); test: Inhibition of TAK1-TAB1 (unknown origin) at 100 nM; format: protein-complex assay
[10] = target: Mitogen-activated protein kinase 14 (Homo sapiens) (UniProt Q16539); test: Inhibition of p38alpha (unknown origin) by direct binding assay at 100 nM
[11] = target: Tyrosine-protein kinase BTK (Homo sapiens) (UniProt Q06187); test: Inhibition of BTK (unknown origin) at 100 nM
[12] = Efflux ratio of permeability from basolateral to apical side over apical to basolateral side in MDCK cells; format: ADME, cell-based, Canis lupus familiaris; details: dog
[13] = target: Tyrosine-protein kinase ABL1 (Homo sapiens) (UniProt P00519); test: Inhibition of ABL (unknown origin) at 100 nM
Chain of Tyrosine-protein kinase ABL1 (Homo sapiens) (P00519 whole entry): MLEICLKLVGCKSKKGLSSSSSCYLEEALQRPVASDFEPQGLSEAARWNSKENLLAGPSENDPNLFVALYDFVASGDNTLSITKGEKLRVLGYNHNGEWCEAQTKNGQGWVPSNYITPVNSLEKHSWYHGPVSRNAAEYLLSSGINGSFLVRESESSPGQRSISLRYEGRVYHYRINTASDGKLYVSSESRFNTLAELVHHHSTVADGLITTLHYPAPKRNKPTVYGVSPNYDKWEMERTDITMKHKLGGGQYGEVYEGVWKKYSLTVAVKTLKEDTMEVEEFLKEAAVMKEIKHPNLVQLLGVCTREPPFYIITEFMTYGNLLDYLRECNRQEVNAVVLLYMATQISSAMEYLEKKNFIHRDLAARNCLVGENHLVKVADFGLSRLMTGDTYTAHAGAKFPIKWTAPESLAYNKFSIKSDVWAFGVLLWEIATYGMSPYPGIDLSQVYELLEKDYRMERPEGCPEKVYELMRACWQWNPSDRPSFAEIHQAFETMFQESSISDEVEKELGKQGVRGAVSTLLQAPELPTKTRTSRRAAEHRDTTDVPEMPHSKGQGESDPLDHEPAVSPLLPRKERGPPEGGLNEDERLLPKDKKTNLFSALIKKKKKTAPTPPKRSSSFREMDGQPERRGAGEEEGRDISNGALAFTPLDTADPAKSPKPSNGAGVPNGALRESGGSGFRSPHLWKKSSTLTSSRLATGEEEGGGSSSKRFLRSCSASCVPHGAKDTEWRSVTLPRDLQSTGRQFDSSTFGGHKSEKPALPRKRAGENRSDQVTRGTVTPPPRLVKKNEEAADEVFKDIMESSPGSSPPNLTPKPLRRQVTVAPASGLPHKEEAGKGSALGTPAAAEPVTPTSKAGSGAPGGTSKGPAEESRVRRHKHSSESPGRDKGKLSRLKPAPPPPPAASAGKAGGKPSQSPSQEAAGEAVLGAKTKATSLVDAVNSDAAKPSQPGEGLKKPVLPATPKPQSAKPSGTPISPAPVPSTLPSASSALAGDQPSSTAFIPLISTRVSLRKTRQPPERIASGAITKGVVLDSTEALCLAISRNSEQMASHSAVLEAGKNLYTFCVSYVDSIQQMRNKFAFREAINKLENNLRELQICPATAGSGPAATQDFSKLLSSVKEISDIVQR

[14] = test system: RAF proto-oncogene serine/threonine-protein kinase (Homo sapiens), P04049 [Y340D,Y341D]; test: Inhibition of RAF1 Y340D/Y341D double mutant (unknown origin) at 100 nM
[15] = target: CDK2/Cyclin A2 (Homo sapiens) (UniProt P24941+P20248); test: Inhibition of CDK2/cyclinA (unknown origin) at 100 nM; format: protein-complex assay
[16] = target: Tyrosine-protein kinase SYK (Homo sapiens) (UniProt P43405); test: Inhibition of SYK (unknown origin) at 100 nM
[17] = test system: Epidermal growth factor receptor (Homo sapiens), P00533 [L858R]; test: Inhibition of EGFR L858R mutant (unknown origin) at 100 nM; format: protein assay
[18] = target: Serine/threonine-protein kinase Chk1 (Homo sapiens) (UniProt O14757); test: Inhibition of CHK1 (unknown origin) at 100 nM
[19] = target: Insulin-like growth factor 1 receptor (Homo sapiens) (UniProt P08069); test: Inhibition of IGF1R (unknown origin) at 100 nM
[20] = target: Tyrosine-protein kinase Fyn (Homo sapiens) (UniProt P06241); test: Inhibition of FYN (unknown origin) at 100 nM
[21] = target: Mitogen-activated protein kinase 1 (Homo sapiens) (UniProt P28482); test: Inhibition of ERK2 (unknown origin) at 100 nM
[22] = target: T1, Epidermal growth factor receptor; test: Inhibition of wild type EGFR (unknown origin)
[23] = target: CDK8/Cyclin C (Homo sapiens) (UniProt P49336+P24863); test: Inhibition of CDK8/cyclinC (unknown origin) at 100 nM; format: protein-complex assay
[24] = target: T1, Epidermal growth factor receptor; test: Inhibition of EGFR deletion (746 to 750 residues) mutant (unknown origin); format: protein assay
Target sequence in this assay (P00533 25-1210 limits assumed, stated change not applied): as the sequence (P00533 25-1210 limits assumed, stated change not applied) above

[25] = target: High affinity nerve growth factor receptor (Homo sapiens) (UniProt P04629); test: Inhibition of TRKA (unknown origin) at 100 nM
[26] = target: Mitogen-activated protein kinase 8 (Homo sapiens) (UniProt P45983); test: Inhibition of JNK1 alpha1 (unknown origin) at 100 nM
Chain of Mitogen-activated protein kinase 8 (Homo sapiens) (P45983 whole entry): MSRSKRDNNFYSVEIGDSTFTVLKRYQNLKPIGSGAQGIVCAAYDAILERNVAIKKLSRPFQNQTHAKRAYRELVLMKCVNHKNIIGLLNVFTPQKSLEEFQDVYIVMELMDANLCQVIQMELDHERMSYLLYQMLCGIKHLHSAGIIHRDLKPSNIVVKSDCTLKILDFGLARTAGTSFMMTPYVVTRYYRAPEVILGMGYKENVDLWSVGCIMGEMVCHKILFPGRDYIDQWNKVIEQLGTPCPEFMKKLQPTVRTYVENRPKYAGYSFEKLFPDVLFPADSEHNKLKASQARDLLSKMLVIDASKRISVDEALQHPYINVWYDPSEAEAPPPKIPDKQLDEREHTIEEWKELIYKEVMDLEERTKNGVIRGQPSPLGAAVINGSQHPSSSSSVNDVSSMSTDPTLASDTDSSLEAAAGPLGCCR

[27] = target: Hepatocyte growth factor receptor (Homo sapiens) (UniProt P08581); test: Inhibition of MET (unknown origin) at 100 nM
[28] = target: Mitogen-activated protein kinase kinase kinase 14 (Homo sapiens) (UniProt Q99558); test: Inhibition of NIK (unknown origin) at 100 nM
[29] = target: SRSF protein kinase 2 (Homo sapiens) (UniProt P78362); test: Inhibition of SRPK2 (unknown origin) at 100 nM
[30] = target: Non-receptor tyrosine-protein kinase TYK2 (Homo sapiens) (UniProt P29597); test: Inhibition of TYK2 (unknown origin) at 100 nM
[31] = target: Ephrin type-A receptor 2 (Homo sapiens) (UniProt P29317); test: Inhibition of EPHA2 (unknown origin) at 100 nM
[32] = target: Inhibitor of nuclear factor kappa-B kinase subunit alpha (Homo sapiens) (UniProt O15111); test: Inhibition of IKKalpha (unknown origin) at 100 nM
[33] = target: Casein kinase I isoform alpha (Homo sapiens) (UniProt P48729); test: Inhibition of CK1alpha1 (unknown origin) at 100 nM
[34] = target: Macrophage colony-stimulating factor 1 receptor (Homo sapiens) (UniProt P07333); test: Inhibition of CSF1R (unknown origin) at 100 nM
[35] = Volume of distribution at steady state in rat; format: ADME, organism-based; details: in vivo, read-out: Vdss
[36] = target: Tyrosine-protein kinase Yes (Homo sapiens) (UniProt P07947); test: Inhibition of YES (unknown origin) at 100 nM
Chain of Tyrosine-protein kinase Yes (Homo sapiens) (P07947 2-543 limits assumed): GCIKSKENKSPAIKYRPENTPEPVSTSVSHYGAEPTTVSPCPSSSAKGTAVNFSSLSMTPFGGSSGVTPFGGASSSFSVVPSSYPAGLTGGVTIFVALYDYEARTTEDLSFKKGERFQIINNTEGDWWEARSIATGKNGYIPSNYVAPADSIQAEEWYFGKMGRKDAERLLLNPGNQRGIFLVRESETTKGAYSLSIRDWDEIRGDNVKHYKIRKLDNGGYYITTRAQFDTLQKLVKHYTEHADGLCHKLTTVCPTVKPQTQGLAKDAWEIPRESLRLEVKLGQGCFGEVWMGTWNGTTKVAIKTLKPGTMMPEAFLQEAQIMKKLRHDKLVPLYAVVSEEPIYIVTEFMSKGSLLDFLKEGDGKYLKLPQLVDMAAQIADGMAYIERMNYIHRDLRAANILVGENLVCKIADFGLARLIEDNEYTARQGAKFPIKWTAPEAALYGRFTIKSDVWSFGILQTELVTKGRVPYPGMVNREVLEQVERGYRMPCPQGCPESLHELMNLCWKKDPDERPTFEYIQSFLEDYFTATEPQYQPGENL

[37] = target: Tyrosine-protein kinase JAK1 (Homo sapiens) (UniProt P23458); test: Inhibition of JAK1 (unknown origin) at 100 nM
[38] = test system: Epidermal growth factor receptor (Homo sapiens), P00533 [T790M]; test: Inhibition of EGFR T790M mutant (unknown origin) at 100 nM; format: protein assay
[39] = target: Aurora kinase B (Homo sapiens) (UniProt Q96GD4); test: Inhibition of Aurora B (unknown origin) at 100 nM
Chain of Aurora kinase B (Homo sapiens) (Q96GD4 whole entry): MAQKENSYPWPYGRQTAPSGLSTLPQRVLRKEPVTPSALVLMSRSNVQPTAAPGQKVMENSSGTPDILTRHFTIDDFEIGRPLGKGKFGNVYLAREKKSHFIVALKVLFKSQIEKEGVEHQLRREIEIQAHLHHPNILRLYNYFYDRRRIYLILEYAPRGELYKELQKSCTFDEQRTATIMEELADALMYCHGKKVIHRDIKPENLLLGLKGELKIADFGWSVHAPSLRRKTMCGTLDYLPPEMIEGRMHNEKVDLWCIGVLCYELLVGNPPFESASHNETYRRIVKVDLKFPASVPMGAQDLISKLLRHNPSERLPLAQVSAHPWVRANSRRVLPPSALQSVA

[40] = target: Dual specificity mitogen-activated protein kinase kinase 1 (Homo sapiens) (UniProt Q02750); test: Inhibition of MEK1 (unknown origin) at 100 nM
[41] = Plasma clearance in iv dosed rat; format: ADME, organism-based
[42] = target: MAP kinase-activated protein kinase 2 (Homo sapiens) (UniProt P49137); test: Inhibition of MAPKAPK2 (unknown origin) at 100 nM
[43] = target: Tyrosine-protein kinase ZAP-70 (Homo sapiens) (UniProt P43403); test: Inhibition of ZAP70 (unknown origin) at 100 nM
[44] = test system: Epidermal growth factor receptor (Homo sapiens), P00533 [L861Q]; test: Inhibition of EGFR L861Q mutant (unknown origin) at 100 nM; format: protein assay

inhibition [1]: 7.5%
Ki [2]: 1.3 nM
inhibition [3]: 7.4%
inhibition [4]: 7%
inhibition [5]: 99.3%
inhibition (Homo sapiens [6]): 88.7%
inhibition [7]: 66.5%
inhibition (Homo sapiens [8]): 33%
inhibition [9]: 14%
inhibition (TAK1/TAB1 (Homo sapiens)): 3.1%
inhibition [10]: 22.4%
inhibition [11]: 17%
efflux ratio [12]: 1.6
inhibition [13]: 35.3%
inhibition [14]: 25.3%
inhibition [15]: 5.3%
inhibition [16]: 7%
inhibition [17]: 90.5%
inhibition [18]: 5.3%
inhibition [19]: 13.5%
inhibition [20]: 82%
inhibition [21]: -3.5%
Ki [22]: 1.5 nM
inhibition [23]: 11.7%
Ki [24]: 0.4 nM
inhibition [25]: 12.6%
inhibition [26]: 4.1%
inhibition [27]: 7.7%
inhibition [28]: -0.3%
inhibition [29]: 12.6%
inhibition [30]: 2%
inhibition [31]: 11.8%
inhibition [32]: -1.8%
inhibition [33]: -3.3%
inhibition [34]: 19.1%
Vd [35]: 3.6 L/kg
inhibition [36]: 94.6%
inhibition [37]: 3.5%
inhibition [38]: 91.3%
inhibition [39]: 16.4%
inhibition [40]: 4.3%
clearance [41]: 74 mL/min/kg
inhibition [42]: 2.1%
inhibition [43]: 3.5%
inhibition [44]: 95.2%
SMILES: CC1(C)OCc2c(Nc3n[nH]c4c(Cl)cccc34)nc(-c3cn[nH]c3)nc21

inhibition [1]: 13.2%
Ki [2]: 1.6 nM
inhibition [3]: 9.1%
inhibition [4]: 4.8%
inhibition [5]: 97.2%
inhibition (Homo sapiens [6]): 78.8%
inhibition [7]: 47.3%
inhibition (Homo sapiens [8]): 35.1%
inhibition [9]: 1.9%
inhibition (TAK1/TAB1 (Homo sapiens)): 8.9%
inhibition [10]: 20.6%
inhibition [11]: 19.8%
efflux ratio [12]: 2.4
inhibition [13]: 54.1%
inhibition [14]: 16.6%
inhibition [15]: 1.9%
inhibition [16]: 0.4%
inhibition [17]: 97.7%
inhibition [18]: 2.7%
inhibition [19]: 4.4%
inhibition [20]: 79.6%
inhibition [21]: 1.2%
Ki [22]: 0.6 nM
inhibition [23]: 7.9%
Ki [24]: 0.2 nM
inhibition [25]: 10.2%
inhibition [26]: -9.9%
inhibition [27]: 7.9%
inhibition [28]: 18%
inhibition [29]: -8.1%
inhibition [30]: 4.9%
inhibition [31]: 12.2%
inhibition [32]: -5.3%
inhibition [33]: 6.9%
inhibition [34]: 17.5%
Vd [35]: 6 L/kg
inhibition [36]: 88.1%
inhibition [37]: 7.7%
inhibition [38]: 95.2%
inhibition [39]: -2.5%
inhibition [40]: 2%
clearance [41]: 86 mL/min/kg
inhibition [42]: 1.9%
inhibition [43]: 9.2%
inhibition [44]: 99.7%
SMILES: CC1(C)OCc2c(Nc3n[nH]c4ccccc34)nc(-c3cn[nH]c3)nc21
